MIC data for three compounds are collected here from patent US20240252506A1 (Hoffmann-La Roche Inc., priority 2021, published 2024).

Values after ≈ are worked out from the molar mass of the structure shown.

The assay relates to Escherichia coli ATCC 25922. The experiment in a line: Minimal Inhibitory Concentration (MIC) determination, broth microdilution (CLSI M07-A10). The following applies: Escherichia coli, ATCC25922, strain Escherichia coli ATCC 25922, 18-24 hours at 35±2° C., lowest concentration for complete growth inhibition (no visible growth), read-out: Escherichia coli growth inhibition MIC. Format: cell-based. An outline of the steps: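 MIC read visually as the lowest concentration with complete growth inhibition after 18-24 h at 35±2° C, ambient air. Method follows CLSI M07-A10 broth microdilution, two-fold compound series, inoculum standardized to 0.5 McFarland then diluted 1:200.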
What is called MIC is the smallest concentration in the dilution series that meets the test's criterion for growth inhibition. As for `CN(CCn1nc2c(F)c3c(c(F)c2n1)CC(CN1CCC2(CC1)CN(c1cnc4c(n1)NC(=O)CO4)C(=O)O2)C3)C(=O)CN.O=CO` [Example 165, 2-Amino-N-[2-[4,8-difluoro-6-[[2-oxo-3-(3-oxo-4H-pyrazino[2,3-b][1,4]oxazin-6-yl)-1-oxa-3,8-diazaspiro[4.5]decan-8-yl]methyl]-6,7-dihydro-5H-cyclopenta[f]benzotriazol-2-yl]ethyl]-N-methyl-acetamide;formic acid], the MIC was determined as 0.5 mg/L.

As to `CN(C)CC(=O)NCCn1nnc2c(F)c3c(c(F)c21)CC(CN1CCC2(CC1)CN(c1cnc4c(n1)NC(=O)CO4)C(=O)O2)C3` (stereo not drawn) [Example 168, N-[2-[4,8-difluoro-6-[[2-oxo-3-(3-oxo-4H-pyrazino[2,3-b][1,4]oxazin-6-yl)-1-oxa-3,8-diazaspiro[4.5]decan-8-yl]methyl]-6,7-dihydro-5H-cyclopenta[f]benzotriazol-1-yl]ethyl]-2-(dimethylamino)acetamide], the MIC was 0.5 mg/L (≈ 0.78 µM).

Take `CN[C@H](C)C(=O)NCc1nc2cc3c(c(F)c2o1)CC(CN1CCC2(CC1)CN(c1cnc4c(n1)NC(=O)CO4)C(=O)O2)C3` (stereo partly drawn) [Example 169, (2R)—N-[[8-Fluoro-6-[[2-oxo-3-(3-oxo-4H-pyrazino[2,3-b][1,4]oxazin-6-yl)-1-oxa-3,8-diazaspiro[4.5]decan-8-yl]methyl]-6,7-dihydro-5H-cyclopenta[f][1,3]benzoxazol-2-yl]methyl]-2-(methylamino)propanamide]: the minimum inhibitory concentration (MIC) was 1 mg/L (≈ 1.64 µM).
